What was measured:
Assay in all cases: relative viability (nuclei count vs DMSO), 5 days (fraction); higher = more cells survive
Halofuginone + Dasatinib = compound: O=C(C[C@H]1NCCC[C@@H]1O)Cn1cnc2cc(Br)c(Cl)cc2c1=O (racemic) [Halofuginone] + Cc1nc(Nc2ncc(C(=O)Nc3c(C)cccc3Cl)s2)cc(N2CCN(CCO)CC2)n1 [Dasatinib] (partner 0.075 µM)
Summary of the method: (§1)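 Dosing by pin tool came one day after lung cancer cell lines were seeded in 1536-well plates, using either one drug or a fixed anchor-drug dose plus five library-drug doses (not always all listed) in √10 steps. After 5 days, nuclei were counted on 4× images. Relative viability is treated-well nuclei count divided by vehicle-well nuclei count, and values are medians of duplicate plates.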

Halofuginone + Alpelisib = compound: O=C(C[C@H]1NCCC[C@@H]1O)Cn1cnc2cc(Br)c(Cl)cc2c1=O (racemic) [Halofuginone] + Cc1nc(NC(=O)N2CCC[C@H]2C(N)=O)sc1-c1ccnc(C(C)(C)C(F)(F)F)c1 [Alpelisib] (partner 2 µM)
Summary of the method: as §1

Cediranib + Lapatinib = compound: COc1cc2c(Oc3ccc4[nH]c(C)cc4c3F)ncnc2cc1OCCCN1CCCC1 [Cediranib] + CS(=O)(=O)CCNCc1ccc(-c2ccc3ncnc(Nc4ccc(OCc5cccc(F)c5)c(Cl)c4)c3c2)o1 [Lapatinib] (partner 2 µM)
Summary of the method: as §1

Cediranib + Palbociclib = compound: COc1cc2c(Oc3ccc4[nH]c(C)cc4c3F)ncnc2cc1OCCCN1CCCC1 [Cediranib] + CC(=O)c1c(C)c2cnc(Nc3ccc(N4CCNCC4)cn3)nc2n(C2CCCC2)c1=O [Palbociclib] (partner 0.5 µM)
Summary of the method: as §1

Row | Cell Line | relative viability (Halofuginone + Dasatinib; first compound 0.001 µM) | relative viability (Halofuginone + Dasatinib; first compound 0.003162 µM) | relative viability (Halofuginone + Dasatinib; first compound 0.01 µM) | relative viability (Halofuginone + Dasatinib; first compound 0.03162 µM) | relative viability (Halofuginone + Dasatinib; first compound 0.1 µM) | relative viability (Halofuginone + Alpelisib; first compound 0.001 µM) | relative viability (Halofuginone + Alpelisib; first compound 0.003162 µM) | relative viability (Halofuginone + Alpelisib; first compound 0.01 µM) | relative viability (Halofuginone + Alpelisib; first compound 0.03162 µM) | relative viability (Halofuginone + Alpelisib; first compound 0.1 µM) | relative viability (Cediranib + Lapatinib; first compound 0.04 µM) | relative viability (Cediranib + Lapatinib; first compound 0.1265 µM) | relative viability (Cediranib + Lapatinib; first compound 0.4 µM) | relative viability (Cediranib + Lapatinib; first compound 1.265 µM) | relative viability (Cediranib + Lapatinib; first compound 4 µM) | relative viability (Cediranib + Palbociclib; first compound 0.04 µM) | relative viability (Cediranib + Palbociclib; first compound 0.1265 µM) | relative viability (Cediranib + Palbociclib; first compound 0.4 µM) | relative viability (Cediranib + Palbociclib; first compound 1.265 µM) | relative viability (Cediranib + Palbociclib; first compound 4 µM)
1 | LC-2-ad | 0.711 | 0.517 | 0.511 | 0.565 | 0.209 | 0.952 | 0.847 | 0.861 | 0.772 | 0.334 | 1.07 | 0.656 | 0.94 | 1.02 | 0.731 | 0.527 | 0.55 | 0.456 | 0.494 | 0.399
2 | NCI-H596 | 0.538 | 0.533 | 0.598 | 0.559 | 0.366 | 0.478 | 0.467 | 0.453 | 0.544 | 0.465 | 1.19 | 1.29 | 1.06 | 0.868 | 1.06 |  |  |  |  | 
3 | NCI-H1437 | 0.377 | 0.445 | 0.431 | 0.364 | 0.285 | 0.996 | 0.957 | 0.979 | 0.673 | 0.294 | 0.87 | 0.791 | 0.764 | 0.842 | 1.03 | 0.32 | 0.305 | 0.291 | 0.349 | 0.335
4 | NCI-H727 | 0.417 | 0.411 | 0.397 | 0.396 | 0.263 | 0.623 | 0.437 | 0.478 | 0.456 | 0.221 | 0.774 | 0.483 | 0.733 | 0.919 | 0.732 | 0.649 | 0.736 | 0.703 | 0.616 | 0.644
5 | PC-3 [JPC-3] | 0.933 | 0.966 | 0.955 | 1.02 | 1.03 | 1.09 | 1.03 | 0.95 | 1.01 | 0.92 | 0.479 | 0.554 | 0.472 | 0.391 | 0.45 | 0.571 |  | 0.515 | 0.559 | 0.563
6 | SW 1573 | 0.576 | 0.579 | 0.481 | 0.241 | 0.0881 | 0.735 | 0.748 | 0.717 | 0.645 | 0.618 | 1.17 | 1.11 | 0.959 | 1.07 | 1.3 | 0.362 | 0.412 | 0.394 | 0.389 | 0.382
7 | NCI-H2228 | 0.622 | 0.488 | 0.48 | 0.236 | 0.0746 | 0.797 | 0.877 | 0.762 | 0.399 | 0.151 | 1.06 | 1.07 | 0.928 | 1.18 | 1.17 | 0.648 | 1.02 | 0.752 | 0.615 | 0.787
8 | NCI-H1650 | 0.339 | 0.329 | 0.293 | 0.2 | 0.166 |  |  |  |  |  | 0.955 | 0.183 | 0.802 | 0.776 | 0.665 | 0.421 | 0.328 | 0.304 | 0.404 | 0.334
9 | NCI-H358 | 0.175 | 0.188 | 0.115 | 0.0901 | 0.0916 | 0.898 | 0.818 | 0.711 | 0.305 | 0.164 | 0.478 | 0.666 | 0.454 | 0.419 | 0.466 | 0.142 | 0.177 | 0.129 | 0.13 | 0.14

Reference: the supplement of paper PMC10307832
